20 compounds from patent publication US20240246948A1, “BENZAMIDE DERIVATIVE, METHOD FOR PREPARING SAME, AND PHARMACEUTICAL COMPOSITION FOR PREVENTION OR TREATMENT OF CANCER CONTAINING SAME AS ACTIVE INGREDIENT” (HK INNO.N CORPORATION, priority 2021, published 2024) can be followed below.

In assay [1] the target is Ba/F3 EGFR L858R/T790M (LT) (Homo sapiens, UniProt P00533, T790M/L858R, cells depend on it). The assay is described as follows: Cell growth inhibitory ability in Ba/F3 cells overexpressing EGFR L858R/T790M (MTS, CellTiter 96 AQueous). The assay is classed as cell-based. The following applies: 72 hours, MTS absorbance at 490 nm, read-out: Ba/F3 EGFR double mutant L858R/T790M, IC50. As to the method:
(§1) In order to confirm that the compound represented by formula 1 provided in one aspect of the present invention acts as an allosteric inhibitor against WT and mutant of EGFR, the cell growth inhibitory effect was evaluated in BaF3 cells overexpressing WT and mutant of EGFR.
(§2) More specifically, the cell growth inhibitory ability of the compound of the present invention to the Ba/F3 cell line overexpressing WT and mutant of EGFR was evaluated using CellTiter 96 AQueous Non-Radioactive Cell Proliferation Assay system of Promega, as follows. AQueous Non-Radioactive Cell Proliferation Assay is a method of confirming cell growth inhibitory ability by measuring the degree of color development by reducing MTS (3-(4,5-Dimethylthiazol-2-yl)-5-(3-carboxymethoxyphenyl)-2-(4-sulfophenyl)-2H-tetrazolium) to Formazan by a reductase secreted by mitochondria present in living cells in a cell culture state. The Ba/F3 EGFR WT and Ba/F3 EGFR del19/T790M/C797S (DTC), Ba/F3 EGFR L858R (L), Ba/F3 EGFR L858R/T790M (LT), and Ba/F3 EGFR L858R/T790M/C797S (LTC) mutation cell lines used in the present invention were purchased from the laboratory of Professor Byung-cheol Cho, Yonsei University. All cell lines were cultured in RPMI supplemented with 10% FBS, 1% penicillin-streptomycin and 1 μg/ml of puromycine in a 5% CO2 incubator at 37° C.
(§3) The cell survival inhibitory effect of the compound according to each EGFR mutation was analyzed by the following analysis method.
(§4) BaF3 cells were distributed in a 96-well cell culture plate at the density of 2000˜10000 cells/100 μL/well, and cultured for 24 hours. Thereafter, the concentration of the compound represented by formula 1 provided in one aspect of the present invention was prepared to double the final concentrations of 0.1 nM, 1 nM, 10 nM, 100 nM, 1000 nM and 10000 nM, and the compound was treated to the plate (100 μL/well). The plate was reacted in an incubator at 37° C. for 72 hours. Then, MTS was treated to the plate (20 μL/well) and the plate was incubated at 37° C. for 2 to 4 hours. Finally, after measuring the absorbance at 490 nm using a microplate reader, the relative value compared to 0 nM (% Control) was obtained to confirm the cell growth inhibitory ability of the compound. The measured values were analyzed using Prism program (version 8.0, Graphpad Software, Inc.), and the IC50 value (Inhibition concentration 50), an indicator of the cell growth inhibitory ability of the compound, was calculated.

Assay [2] has as its target Ba/F3 EGFR L858R/T790M/C797S (LTC) (Homo sapiens, UniProt P00533, T790M/C797S/L858R, cells depend on it). The assay is described as follows: Cell growth inhibitory ability in Ba/F3 cells overexpressing EGFR L858R/T790M/C797S (MTS, CellTiter 96 AQueous). The following applies: 72 hours, MTS absorbance at 490 nm, read-out: Ba/F3 EGFR triple mutant L858R/T790M/C797S, IC50. The assay is classed as cell-based. Here is the method:
as §1, §2, §3, §4

Sequence of Ba/F3 EGFR L858R/T790M/C797S (LTC) (P00533 whole entry T790M/C797S/L858R): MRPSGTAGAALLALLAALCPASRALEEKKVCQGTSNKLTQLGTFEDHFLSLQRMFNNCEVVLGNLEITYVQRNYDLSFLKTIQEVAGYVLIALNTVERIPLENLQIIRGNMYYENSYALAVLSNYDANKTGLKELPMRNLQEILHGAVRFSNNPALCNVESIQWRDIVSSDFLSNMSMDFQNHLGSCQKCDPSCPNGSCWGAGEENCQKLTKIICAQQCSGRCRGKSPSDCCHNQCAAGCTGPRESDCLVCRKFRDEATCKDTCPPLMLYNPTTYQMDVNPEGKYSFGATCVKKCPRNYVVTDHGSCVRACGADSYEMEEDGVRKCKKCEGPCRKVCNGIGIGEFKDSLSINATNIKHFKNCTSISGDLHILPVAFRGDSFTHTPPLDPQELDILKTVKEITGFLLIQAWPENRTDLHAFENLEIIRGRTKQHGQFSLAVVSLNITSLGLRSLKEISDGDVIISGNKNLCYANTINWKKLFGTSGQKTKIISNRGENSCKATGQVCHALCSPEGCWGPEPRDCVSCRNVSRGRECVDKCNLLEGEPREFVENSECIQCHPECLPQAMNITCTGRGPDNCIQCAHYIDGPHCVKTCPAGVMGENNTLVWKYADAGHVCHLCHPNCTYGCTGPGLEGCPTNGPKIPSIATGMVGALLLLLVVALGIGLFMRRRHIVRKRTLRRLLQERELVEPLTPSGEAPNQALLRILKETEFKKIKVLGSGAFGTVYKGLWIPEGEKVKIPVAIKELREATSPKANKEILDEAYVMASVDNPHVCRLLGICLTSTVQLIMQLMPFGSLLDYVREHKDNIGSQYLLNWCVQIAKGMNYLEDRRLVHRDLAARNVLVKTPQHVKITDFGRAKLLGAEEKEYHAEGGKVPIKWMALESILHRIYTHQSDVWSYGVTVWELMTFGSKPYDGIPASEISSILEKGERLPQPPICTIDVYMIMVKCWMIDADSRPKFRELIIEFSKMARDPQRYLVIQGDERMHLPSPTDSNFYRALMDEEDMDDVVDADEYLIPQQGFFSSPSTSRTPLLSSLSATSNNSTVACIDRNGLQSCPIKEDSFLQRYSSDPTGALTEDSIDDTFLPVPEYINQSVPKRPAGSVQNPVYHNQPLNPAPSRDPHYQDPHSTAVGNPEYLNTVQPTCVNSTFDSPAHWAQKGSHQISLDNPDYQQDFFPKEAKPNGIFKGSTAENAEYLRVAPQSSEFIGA
Sequence of Ba/F3 EGFR L858R/T790M (LT) (P00533 whole entry T790M/L858R): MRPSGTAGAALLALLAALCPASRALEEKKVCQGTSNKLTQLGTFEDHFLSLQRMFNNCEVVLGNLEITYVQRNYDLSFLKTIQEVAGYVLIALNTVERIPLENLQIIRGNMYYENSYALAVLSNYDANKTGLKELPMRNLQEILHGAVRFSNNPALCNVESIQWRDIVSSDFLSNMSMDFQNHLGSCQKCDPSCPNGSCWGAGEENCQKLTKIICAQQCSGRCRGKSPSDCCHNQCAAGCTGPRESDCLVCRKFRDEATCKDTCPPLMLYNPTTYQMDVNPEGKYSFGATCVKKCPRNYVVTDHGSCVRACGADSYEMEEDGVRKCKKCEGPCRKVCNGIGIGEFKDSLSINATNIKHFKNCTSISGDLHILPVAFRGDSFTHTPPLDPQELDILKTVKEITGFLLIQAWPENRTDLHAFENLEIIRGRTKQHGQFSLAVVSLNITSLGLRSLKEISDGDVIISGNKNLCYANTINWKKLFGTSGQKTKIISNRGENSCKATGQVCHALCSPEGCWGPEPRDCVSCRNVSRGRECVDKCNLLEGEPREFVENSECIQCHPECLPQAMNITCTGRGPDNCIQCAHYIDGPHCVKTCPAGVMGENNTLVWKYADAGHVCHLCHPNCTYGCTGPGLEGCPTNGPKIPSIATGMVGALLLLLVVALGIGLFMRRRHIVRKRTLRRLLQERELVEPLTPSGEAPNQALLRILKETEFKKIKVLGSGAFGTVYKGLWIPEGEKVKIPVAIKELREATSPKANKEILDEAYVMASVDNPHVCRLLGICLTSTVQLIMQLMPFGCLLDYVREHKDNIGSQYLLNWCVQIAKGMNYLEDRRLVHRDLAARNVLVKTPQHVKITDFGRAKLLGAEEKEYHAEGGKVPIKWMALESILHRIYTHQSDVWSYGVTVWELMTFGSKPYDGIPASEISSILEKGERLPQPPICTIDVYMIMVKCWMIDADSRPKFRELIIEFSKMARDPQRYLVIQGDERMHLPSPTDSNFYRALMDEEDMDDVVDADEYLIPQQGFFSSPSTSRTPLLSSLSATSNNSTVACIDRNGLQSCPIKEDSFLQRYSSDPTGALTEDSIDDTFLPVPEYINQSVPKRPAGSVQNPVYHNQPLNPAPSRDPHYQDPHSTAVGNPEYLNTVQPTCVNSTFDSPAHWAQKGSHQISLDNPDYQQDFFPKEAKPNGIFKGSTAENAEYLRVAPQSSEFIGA

Take `Cc1cc(C(=O)N[C@@H](c2cc3ccccc3[nH]2)c2cc(F)ccc2O)cc(-c2ccc(N3CCC(N)CC3)cc2)c1` [Example 1, (R)-4′-(4-aminopiperidine-1-yl)-N-((5-fluoro-2-hydroxyphenyl)(1H-indole-2-yl)methyl)-5-methyl-[1,1′-biphenyl]-3-carboxamide]: the GI50 in assay [1] and in assay [2] was under 30 nM each time.

As for `CC(C)c1cc(C(=O)N[C@@H](c2cc3ccccc3[nH]2)c2cc(F)ccc2O)cc(-c2ccc(N3CCC(N)CC3)cc2)c1` [Example 2, (R)-4′-(4-aminopiperidine-1-yl)-N-((5-fluoro-2-hydroxyphenyl)(1H-indole-2-yl)methyl)-5-isopropyl-[1,1′-biphenyl]-3-carboxamide], the GI50 in assay [1] and in assay [2] was over 200 nM in each case.

`COc1cc(C(=O)N[C@@H](c2cc3ccccc3[nH]2)c2cc(F)ccc2O)cc(-c2ccc(N3CCC(N)CC3)cc2)c1` [Example 3, (R)-4′-(4-aminopiperidine-1-yl)-N-((5-fluoro-2-hydroxyphenyl)(1H-indole-2-yl)methyl)-5-methoxy-[1,1′-biphenyl]-3-carboxamide]: the GI50 in assay [1] and in assay [2] was over 200 nM each time.

`CC(C)(C)c1cc(C(=O)N[C@@H](c2cc3ccccc3[nH]2)c2cc(F)ccc2O)cc(-c2ccc(N3CCC(N)CC3)cc2)c1` [Example 4, (R)-4′-(4-aminopiperidine-1-yl)-5-(tert-butyl)-N-((5-fluoro-2-hydroxyphenyl)(1H-indole-2-yl)methyl)-[1,1′-biphenyl]-3-carboxamide]: the GI50 in assay [1] and in assay [2] was over 200 nM each time.

For `NC1CCN(c2ccc(-c3cc(F)cc(C(=O)N[C@@H](c4cc5ccccc5[nH]4)c4cc(F)ccc4O)c3)cc2)CC1` [Example 5, (R)-4′-(4-aminopiperidine-1-yl)-5-fluoro-N-((5-fluoro-2-hydroxyphenyl)(1H-indole-2-yl)methyl)-[1,1′-biphenyl]-3-carboxamide], the figures for the GI50 in assay [1] and in assay [2] were under 30 nM and over 200 nM, respectively.

`NC1CCN(c2ccc(-c3cc(C(=O)N[C@@H](c4cc5ccccc5[nH]4)c4cc(F)ccc4O)cc(C(F)(F)F)c3)cc2)CC1` [Example 6, 4′-(4-aminopiperidine-1-yl)-N-((5-fluoro-2-hydroxyphenyl)(1H-indole-2-yl)methyl)-5-(trifluoromethyl)-[1,1′-biphenyl]-3-carboxamide]: the GI50 in assay [1] and in assay [2] was over 200 nM throughout.

For the compound `NC1CCN(c2ccc(-c3cc(C(=O)N[C@@H](c4cc5ccccc5[nH]4)c4cc(F)ccc4O)cc([N+](=O)[O-])c3)cc2)CC1` [Example 7, 4′-(4-aminopiperidine-1-yl)-N-((5-fluoro-2-hydroxyphenyl)(1H-indole-2-yl)methyl)-5-nitro-[1,1′-biphenyl]-3-carboxamide], the GI50 in assay [1] and in assay [2] was over 200 nM each time.

Take `CSc1cc(C(=O)N[C@@H](c2cc3ccccc3[nH]2)c2cc(F)ccc2O)cc(-c2ccc(N3CCC(N)CC3)cc2)c1` [Example 8, 4′-(4-aminopiperidine-1-yl)-N-((5-fluoro-2-hydroxyphenyl)(1H-indole-2-yl)methyl)-5-(methylthio)-[1,1′-biphenyl]-3-carboxamide]: the GI50 in assay [1] and in assay [2] was over 200 nM throughout.

As to `N#Cc1cc(C(=O)N[C@@H](c2cc3ccccc3[nH]2)c2cc(F)ccc2O)cc(-c2ccc(N3CCC(N)CC3)cc2)c1` [Example 9, 4′-(4-aminopiperidine-1-yl)-5-cyano-N-((5-fluoro-2-hydroxyphenyl)(1H-indole-2-yl)methyl)-[1,1′-biphenyl]-3-carboxamide], the GI50 in assay [1] and in assay [2] was over 200 nM each time.

As to `Cc1cc(C(=O)N[C@@H](c2cc3ccccc3[nH]2)c2cc(F)ccc2O)cc(-c2ncc(N3C4CCC3CN(C)C4)cn2)c1` [Example 46, N—((R)-(5-fluoro-2-hydroxyphenyl)(1H-indole-2-yl)methyl)-3-methyl-5-(5-(3-methyl-3,8-diazabicyclo[3.2.1]octane-8-yl)pyrimidine-2-yl)benzamide], the GI50 in assay [2] was under 30 nM.

Regarding `Cc1cc(C(=O)N[C@@H](c2cc3ccccc3[nH]2)c2cc(F)ccc2O)cc(-c2ncc(N3CCC(n4cccc4)CC3)cn2)c1` [Example 47, (R)-3-(5-(4-(1H-pyrrole-1-yl)piperidine-1-yl)pyrimidine-2-yl)-N-((5-fluoro-2-hydroxyphenyl)(1H-indole-2-yl)methyl)-5-methylbenzamide], the GI50 in assay [2] is over 200 nM.

In the case of `Cc1cc(C(=O)N[C@@H](c2cc3ccccc3[nH]2)c2cc(F)ccc2O)cc(-c2ncc(N3CCC(n4cncn4)CC3)cn2)c1` [Example 48, (R)-3-(5-(4-(1H-1,2,4-triazole-1-yl)piperidine-1-yl)pyrimidine-2-yl)-N-((5-fluoro-2-hydroxyphenyl)(1H-indole-2-yl)methyl)-5-methylbenzamide], the GI50 in assay [2] lay within 30 to 200 nM.

Consider `Cc1cc(C(=O)N[C@@H](c2cc3ccccc3[nH]2)c2cc(F)ccc2O)cc(-c2ncc(N3CCC(O)CC3)cn2)c1` [Example 49, (R)—N-((5-fluoro-2-hydroxyphenyl)(1H-indole-2-yl)methyl)-3-(5-(4-hydroxypiperidine-1-yl)pyrimidine-2-yl)-5-methylbenzamide], for which, in assay [2], the GI50 is under 30 nM.

As for `Cc1cc(C(=O)N[C@@H](c2cc3ccccc3[nH]2)c2cc(F)ccc2O)cc(-c2ncc(N3CCC(N4CCCCC4)CC3)cn2)c1` [Example 50, (R)-3-(5-([1,4′-bipiperidine]-1′-yl)pyrimidine-2-yl)-N-((5-fluoro-2-hydroxyphenyl)(1H-indole-2-yl)methyl)-5-methylbenzamide], in assay [2], the GI50 is under 30 nM.

For `Cc1cc(C(=O)N[C@@H](c2cc3ccccc3[nH]2)c2cc(F)ccc2O)cc(-c2ncc(N3CCC(CN4CCOCC4)CC3)cn2)c1` [Example 51, (R)—N-((5-fluoro-2-hydroxyphenyl)(1H-indole-2-yl)methyl)-3-methyl-5-(5-(4-(morpholinomethyl)piperidine-1-yl)pyrimidine-2-yl)benzamide], the GI50 in assay [2] is over 200 nM.

As for `Cc1cc(C(=O)N[C@@H](c2cc3ccccc3[nH]2)c2cc(F)ccc2O)cc(-c2ncc(N3CCC(CN4CCCC4)CC3)cn2)c1` [Example 52, (R)—N-((5-fluoro-2-hydroxyphenyl)(1H-indole-2-yl)methyl)-3-methyl-5-(5-(4-(pyrrolidine-1-ylmethyl)piperidine-1-yl)pyrimidine-2-yl)benzamide], the GI50 in assay [2] is over 200 nM.

With `Cc1cc(C(=O)N[C@@H](c2cc3ccccc3[nH]2)c2cc(F)ccc2O)cc(-c2ncc(N3CC[C@@H](N(C)C)C3)cn2)c1` [Example 53, 3-[5-[(3R)-3-(dimethylamino)pyrrolidine-1-yl]pyrimidine-2-yl]-N—[(R)-(5-fluoro-2-hydroxy-phenyl)-(1H-indole-2-yl)methyl]-5-methyl-benzamide], the GI50 in assay [2] was under 30 nM.

On to `CNC1CCN(c2cnc(-c3cc(C)cc(C(=O)N[C@@H](c4cc5ccccc5[nH]4)c4cc(F)ccc4O)c3)nc2)CC1` [Example 54, (R)—N-((5-fluoro-2-hydroxyphenyl)(1H-indole-2-yl)methyl)-3-methyl-5-(5-(4-(methylamino)piperidine-1-yl)pyrimidine-2-yl)benzamide], for which the GI50 in assay [2] is under 30 nM.

With `Cc1cc(C(=O)N[C@@H](c2cc3ccccc3[nH]2)c2cc(F)ccc2O)cc(-c2ncc(N3CCC(C(=O)Nc4ccccc4)CC3)cn2)c1` [Example 55, (R)-1-(2-(3-(((5-fluoro-2-hydroxyphenyl)(1H-indole-2-yl)methyl)carbamoyl)-5-methylphenyl)pyrimidine-5-yl)-N-phenylpiperidine-4-carboxamide], in assay [2], the GI50 was over 200 nM.

Regarding `COCCOc1ccc(N2CCN(c3cnc(-c4cc(C)cc(C(=O)N[C@@H](c5cc6ccccc6[nH]5)c5cc(F)ccc5O)c4)nc3)CC2)cc1` [Example 56, (R)—N-((5-fluoro-2-hydroxyphenyl)(1H-indole-2-yl)methyl)-3-(5-(4-(4-(2-methoxyethoxy)phenyl)piperazine-1-yl)pyrimidine-2-yl)-5-methylbenzamide], in assay [2], the GI50 is over 200 nM.
